The source of these data is ChEMBL document CHEMBL1149977, “Synthesis of 1-(2-aminopropyl)benzimidazoles, structurally related to the TIBO derivative R82150, with activity against human immunodeficiency virus” (Bioorg Med Chem Lett, 1993).

pIC50: −log10 of the molar value.

In experiment [1] the target is Human immunodeficiency virus type 1 reverse transcriptase (Human immunodeficiency virus 1) (UniProt Q72547). Kind of experiment: Tested for the inhibition of HIV-1 reverse transcriptase at a concentration of 10 ug/mL using a ribosomal RNA template.
The test system of experiment [2] is CEM-SS. Kind of experiment: Tested for the cytotoxicity against CEM-SS cells (determined by the inhibition of [3H]-thymidine uptake). In kind it is functional. To be noted: Homo sapiens.
The test system of experiment [3] is CEM-SS. Description: Tested for the inhibition of HIV-1 in CEM-SS cells measured using Syncytial assay. Type of experiment: functional, cell-based. Conditions: Homo sapiens.
For experiment [4], the target named is Human immunodeficiency virus type 1 reverse transcriptase (Human immunodeficiency virus 1) (UniProt Q72547). Description: Tested for the inhibition of HIV-1 reverse transcriptase at a concentration of 100 ug/mL using a ribosomal RNA template.
Experiment [5] deals with Human immunodeficiency virus type 1 reverse transcriptase (Human immunodeficiency virus 1, UniProt Q72547). Kind of experiment: Tested for the inhibition of HIV-1 reverse transcriptase using a ribosomal RNA template.
A short description of experiment [6]: Selectivity index was determined by the ratio of CC50 to IC50. Type of experiment: functional.

In general, inhibition refers to the share of the control response that was lost under treatment. The CC50 is the concentration at which the toxic effect on the cells reaches its halfway point. Usually pIC50 stands for the IC50 on a negative log10 scale, so that one unit is a factor of ten. A lower pIC50 goes with a large IC50. Turning to `CC(C)=CCNC(C)Cn1c(S)nc2ccccc21` (stereo not drawn), the results for the inhibition in experiment [1] and in experiment [4] were 19% and 46%, respectively. For the same compound, in the experiment on CEM-SS [2], the half-maximal cytotoxic concentration (CC50) is 81 µM. The compound further had a pIC50 in the experiment on CEM-SS [3] of 4.64.
For `CC(C)=CCN(C)C(C)Cn1c(S)nc2ccccc21` (stereo not drawn), the results for the inhibition in experiment [1] and in experiment [4] were 19% and 34%, respectively. The same compound registered a cytotoxic concentration (CC50) in the experiment with CEM-SS [2] greater than 100 µM. The negative-log IC50 (pIC50) in the experiment on CEM-SS [3] was 4.85.
As for `C=CCNC(C)Cn1c(S)nc2ccccc21` (stereo not drawn), the inhibition came to 4.5% in experiment [1] and 29% in experiment [4]. In the experiment on CEM-SS [2], this compound showed a CC50 greater than 100 µM. The pIC50 with CEM-SS [3] was 4.55.
As to `C=CCN(C)C(C)Cn1c(S)nc2ccccc21` (stereo not drawn), the CC50 in the experiment with CEM-SS [2] was greater than 100 µM. In the experiment with CEM-SS [3], this compound gave a pIC50 of 4.64.
For `CC(Cn1c(S)nc2ccccc21)N(C)Cc1ccccc1` (stereo not drawn), the inhibition in experiment [1] turned out to be 13%; in experiment [4] it was 31%. This compound registered a CC50 in the experiment on CEM-SS [2] of 79 µM. For the same compound, the pIC50 in the experiment with CEM-SS [3] is 4.70.
In the experiment with CEM-SS [2], `CC(C)=CCN1Cc2cc(Cl)cc3[nH]c(=S)n(c23)C[C@@H]1C` gave a half-maximal cytotoxic concentration (CC50) of 35 µM. Moreover, the pIC50 is 7.26 in the experiment with CEM-SS [3] and 7.81 in experiment [5].
For `CC(Cn1c(S)nc2ccccc21)NCc1ccccc1` (stereo not drawn), the inhibition in experiment [1] was 17%; in experiment [4], 36%. In the experiment on CEM-SS [2], it took 82 µM to reach half-maximal cytotoxicity (CC50). This compound also showed a pIC50 with CEM-SS [3] of 5.37. In addition, the Selectivity index in experiment [6] amounted to 19.
Take `CC(C)=CCN1Cc2cccc3[nH]c(=S)n(c23)C[C@@H]1C`: in the experiment with CEM-SS [2], the CC50 is 79 µM. The compound further showed a pIC50 with CEM-SS [3] of 7.59.
